This experiment deals with T1, Macrophage-Derived Chemokine (MDC/CCL22) (Homo sapiens, UniProt O00626).
T1 sequence (O00626 25-93): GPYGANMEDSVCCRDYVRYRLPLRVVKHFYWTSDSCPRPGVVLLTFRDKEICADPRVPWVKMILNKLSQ
Put plainly: TRIC-r calcium mobilization, Indo-1, EGFP-CCR4+Gqi5+ HEK cells. Type of experiment: cell-based. In general terms: A change in cytosolic calcium serves as a functional read-out for many receptors and channels.

For orientation: IC50 means the concentration that inhibits the measured activity by half.

For `COc1cc(/C=C/C(=O)NCCc2c[nH]c3ccc(O)cc23)ccc1O` [N-Feruloylserotonin], the half-inhibitory concentration (IC50) came out at 15 µM.

The values are drawn from paper PMC8455218, “A Cornflower Extract Containing N-Feruloylserotonin Reduces Inflammation in Human Skin by Neutralizing CCL17 and CCL22 and Inhibiting COX-2 and 5-LOX” (Mediators of Inflammation, 2021).
